Cr release, Toxicity and LDH release data for 3 compounds are collected here from ChEMBL document CHEMBL1122054, “Lysosomotropic agents. 4. Carbobenzoxyglycylphenylalanyl, a new protease-sensitive masking group for introduction into cells” (J Med Chem, 1982).

Type in all cases: functional
Test [1] is filed under the species Mus musculus. In words: Toxicity toward P-815 Mastocytoma cells after 5 hr was determined as percent of [51Cr]- release from labeled cells as a measure of cell death. at a concentration of 0.208 mM. (expt III).
For test [2], the species on record is Mus musculus. In words: Toxicity was evaluated for the compound at a concentration of 0.208 mM against […] Mastocytoma.
Test [3] is filed under the species Mus musculus. The experiment in a line: Toxicity toward P-815 Mastocytoma cells after 5 hr was determined as percent of [51Cr]- release from labeled cells as a measure of cell death. at a concentration of 0.282 mM. (expt III).
The species entered for test [4] is Mus musculus. The experiment in a line: Toxicity toward P-815 Mastocytoma cells after 5 hr was determined as percent of [51Cr]- release from labeled cells as a measure of cell death. at a concentration of 0.257 mM. (expt III).
The species entered for test [5] is Mus musculus. The experiment in a line: Cytotoxicity was determined against mouse peritoneal macrophages (MPM) and the percent of LDH released after 24 hr was determined as a measure of cell death at a concentration of 0.375 mM (expt I).
The species entered for test [6] is Mus musculus. In words: Cytotoxicity was determined against mouse peritoneal macrophages (MPM) and the percent of LDH released after 24 hr was determined as a measure of cell death at a concentration of 0.375 mM (expt II).
Test [7] is filed under the species Mus musculus. The experiment in a line: Cytotoxicity was determined for the compound against mouse peritoneal macrophages (MPM) at a concentration of 0.514 mM.
For test [8], the species on record is Mus musculus. The experiment in a line: Cytotoxicity was determined for the compound against mouse peritoneal macrophages (MPM) at a concentration of 0.541 mM.
For test [9], the species on record is Mus musculus. The experiment in a line: Toxicity was evaluated for the compound at a concentration of 0.257 mM against […] Mastocytoma.

In the test filed under Mus musculus [1], `O=C(CNC(=O)OCc1ccccc1)N[C@@H](Cc1ccccc1)C(=O)N(CCCl)CCCl` returned a Cr release of 16%. The Toxicity in the test listed under Mus musculus [2] stood at 100 µg/mL.
Compound `NC(=O)[C@H](Cc1ccccc1)NC(=O)CNC(=O)OCc1ccccc1` displayed a Cr release in the test listed under Mus musculus [3] of 17%.
The compound `CCCCCCCCCCCCNC(=O)[C@@H](Cc1ccccc1)NC(=O)CN` yielded a Cr release in the test listed under Mus musculus [4] of 95%. Also, the LDH release was 85% in the test filed under Mus musculus [5] and 78% in the test listed under Mus musculus [6]. The Toxicity in the test listed under Mus musculus [7] was 200 µg/mL; in the test listed under Mus musculus [8] it was 210 µg/mL; in the test filed under Mus musculus [9], 100 µg/mL.
